Reference: PubChem BioAssay (NCI)
Several values for one entry are separate records, joined by “and”; a condition that tells them apart may be missing. Identical values can stand only once.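 Five concentrations, 48 hours, 96-well plates. GI50: concentration for 50% inhibition of growth. At the TGI there is no net growth.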

Experiments:
Assay in all cases: NCI-60 cell line screen, 48 h
[1] = tested on: A498 renal
[2] = tested on: A549 NSCLC
[3] = tested on: DU-145 prostate
[4] = tested on: HOP-92 NSCLC
[5] = tested on: HT29 colon
[6] = tested on: LOX IMVI melanoma
[7] = tested on: NCI-H226 lung
[8] = tested on: NCI-H522 lung
[9] = tested on: SNB-19 CNS
[10] = tested on: TK-10 renal

Row | Structure (SMILES) | GI50 [1] | TGI [1] | GI50 [2] | TGI [2] | GI50 [3] | TGI [3] | GI50 [4] | TGI [4] | GI50 [5] | TGI [5] | GI50 [6] | TGI [6] | GI50 [7] | TGI [7] | GI50 [8] | TGI [8] | GI50 [9] | TGI [9] | GI50 [10] | TGI [10]
1 | N#CSc1c[nH]c2ccc(/C=C/C(=O)/C=C(O)/C=C/c3ccc4[nH]cc(SC#N)c4c3)cc12 | 7.61 µM | 55.4 µM | 3.25 µM | 14.7 µM | 1.92 µM | 4.56 µM | 1.63 µM | 4.46 µM | 1.42 µM | 3.84 µM | 0.483 µM | 1.83 µM | 1.95 µM | 5.86 µM | 0.886 µM | 2.79 µM | 3.25 µM | 15.5 µM | 3.35 µM | 23.8 µM
2 | CC(C)(C)CNCCO |  | > 100 µM |  | > 100 µM |  | > 100 µM |  | > 100 µM |  | > 100 µM |  | > 100 µM |  | > 100 µM |  | > 100 µM |  | > 100 µM |  | > 100 µM
3 | Clc1ccc2c(NC3CCC(NC4CCCCC4)CC3)ccnc2c1 (configuration not stated) | 4.07 µM | 27.4 µM | 4.84 µM | 17.3 µM | 13.3 µM | 33.6 µM | 1.2 µM | 9.74 µM | 1.57 µM | 7.88 µM | 1.75 µM | 4.29 µM | 12.8 µM | 46.5 µM | 3.37 µM | 14 µM | 21.3 µM | 89.8 µM | 2.13 µM | 7.11 µM
4 | Clc1cccc(-c2cc(-c3ccc4c(c3)OCCO4)[nH]n2)c1 | 1.73 µM | 18.5 µM | 1.55 µM | 44.5 µM | 8.74 µM | 38.9 µM | 7.74 µM | 42.8 µM | 0.952 µM | 31.6 µM | 4.43 µM | 39.4 µM | 29.5 µM | 92.1 µM | 1.48 µM | 37.2 µM | 21.6 µM | 59.3 µM | 13.9 µM | 56.1 µM
5 | CCCCCOC(=O)c1c(C)[nH]c(/C=C2\N=C(c3ccc[nH]3)C=C2OC)c1C | 0.124 µM | 1.02 µM | 0.0293 µM | 0.184 µM | 0.0371 µM | 1.68 µM | 0.0214 µM | 0.116 µM | 0.0154 µM | 1.34 µM | 0.0115 µM | 0.025 µM | 0.222 µM | 2.13 µM | 0.0392 µM | 1.27 µM | 0.317 µM | 8.4 µM | 0.047 µM | 1.72 µM
6 | O=c1oc2ccccc2cc1P(=O)(O)O |  | > 100 µM |  | > 100 µM |  | > 100 µM |  | > 100 µM |  | > 100 µM |  | > 100 µM |  | > 100 µM |  | > 100 µM |  | > 100 µM |  | > 100 µM
7 | C=C(C)[C@@H]1CC[C@]2(C(=O)OC)CC[C@]3(C)[C@H](CC[C@@H]4[C@@](C)(CCc5nn[nH]n5)[C@H](C(=C)C)CC[C@]43C)[C@@H]12 | 22.4 µM | 60.7 µM | 12.4 µM | 34.9 µM | 16 µM | 32.4 µM | 8.08 µM | 22.3 µM | 20.6 µM | 73.3 µM | 16 µM | 29.5 µM | 15.3 µM | 47.7 µM | 17.2 µM | 51.5 µM | 15.4 µM | 35.7 µM | 30.9 µM | > 100 µM
8 | CCCN1CCC(Oc2cc(Nc3nc(Nc4cccc(F)c4C(N)=O)c4cc[nH]c4n3)c(OC)cc2Cl)CC1 | 2.95 µM | 6.47 µM | 2.64 µM | 5.95 µM | 3.68 µM | 7.76 µM | 0.309 µM | 3.42 µM | 0.565 µM | 1.6 µM | 1.57 µM | 5.31 µM | 3.64 µM | 10.7 µM | 3.98 µM | 7.9 µM | 4.18 µM | 8.33 µM | 3.14 µM | 7.01 µM
9 | CCOc1ccc2nc3cc(N)ccc3c(N)c2c1 | 2.78 µM and 12.7 µM | 29.1 µM and 37.5 µM | 9.61 µM and 10.9 µM | 28.6 µM and 26.2 µM | 5.65 µM and 6.17 µM | 18.3 µM and 19 µM | 3.4 µM and 2.96 µM | 16.4 µM and 11.3 µM | 5.77 µM and 5.22 µM | 19.5 µM and 17.9 µM | 4.53 µM and 2.95 µM | 20 µM and 12.4 µM | 6.49 µM and 2.55 µM | 24.2 µM and 13.4 µM | 1.8 µM and 1.69 µM | 4.54 µM and 5.1 µM | 0.339 µM and 0.574 µM | 2.04 µM and 5 µM | 20.9 µM and 12.7 µM | 46.8 µM and 34.8 µM
10 | COc1cc2c(cc1OCCCCCOc1ccc(-c3nc4ccccc4s3)cc1)N=C[C@@H]1CCCN1C2=O | 5.29 µM | 11.5 µM | 5.29 µM | 20.4 µM | 2.08 µM | 13 µM | 0.886 µM | 3.62 µM | 1.58 µM | 18 µM | 0.983 µM | 4.37 µM | 3.02 µM | 10.4 µM | 1.72 µM | 13.7 µM | 5.08 µM | 20.8 µM | 8.48 µM | > 57.7 µM
11 | COC1C(OC(=O)/C=C/C=C/C=C/C=C/C(=O)O)CCC2(CO2)C1C1(C)OC1CC=C(C)C (configuration not stated) |  | > 100 µM | 0.308 µM | > 100 µM | 0.651 µM | > 100 µM | 0.438 µM | > 76.1 µM | 0.181 µM |  | 0.183 µM |  |  | > 100 µM | 0.137 µM |  | 0.277 µM | > 100 µM |  | > 100 µM
12 | OC(c1ccccc1)c1c(-c2ccccc2)[nH]c(-c2ccccc2)c1C(O)c1ccccc1 (configuration not stated) |  | 8.73 µM |  | 18.9 µM |  | 20 µM |  | 5.46 µM |  | 17.5 µM |  | 7.37 µM |  | 7.32 µM |  | 11.5 µM |  | 23.4 µM |  | 18.9 µM
13 | CCCCCCCCCCCC1=NC(C)(C)CN1C(C)C | 4.78 µM | 19.3 µM | 3.71 µM | 14.6 µM | 5.46 µM | 17.9 µM | 1.19 µM | 5.17 µM |  |  | 2.32 µM | 6.85 µM | 6.16 µM | 22 µM | 2.65 µM | 10.8 µM | 11.3 µM | 23.4 µM | 4.02 µM | 16.1 µM
